# Test results taken from US12637413B2, “Fatty acid amide hydrolase (FAAH) cleavable prodrugs of thyromimetics and combination with peripherally restricted FAAH inhibitors” (Autobahn Therapeutics, Inc., priority 2021, dated 2026).
# How the values were obtained:
# [1] = molecular target: T1, recombinant human FAAH (rhFAAH) (Homo sapiens, UniProt O00519); experiment: FAAH substrate evaluation (acid metabolite formation); assay type: biochemical; conditions: observed rate constant for acid metabolite formation; 0.5 ng/μL rhFAAH, 1 μM test compound, room temperature, 0-60 minutes
# T1 construct: purchased Cayman Chemical (Ann Arbor, MI, USA)
# T1 sequence (O00519 1-579): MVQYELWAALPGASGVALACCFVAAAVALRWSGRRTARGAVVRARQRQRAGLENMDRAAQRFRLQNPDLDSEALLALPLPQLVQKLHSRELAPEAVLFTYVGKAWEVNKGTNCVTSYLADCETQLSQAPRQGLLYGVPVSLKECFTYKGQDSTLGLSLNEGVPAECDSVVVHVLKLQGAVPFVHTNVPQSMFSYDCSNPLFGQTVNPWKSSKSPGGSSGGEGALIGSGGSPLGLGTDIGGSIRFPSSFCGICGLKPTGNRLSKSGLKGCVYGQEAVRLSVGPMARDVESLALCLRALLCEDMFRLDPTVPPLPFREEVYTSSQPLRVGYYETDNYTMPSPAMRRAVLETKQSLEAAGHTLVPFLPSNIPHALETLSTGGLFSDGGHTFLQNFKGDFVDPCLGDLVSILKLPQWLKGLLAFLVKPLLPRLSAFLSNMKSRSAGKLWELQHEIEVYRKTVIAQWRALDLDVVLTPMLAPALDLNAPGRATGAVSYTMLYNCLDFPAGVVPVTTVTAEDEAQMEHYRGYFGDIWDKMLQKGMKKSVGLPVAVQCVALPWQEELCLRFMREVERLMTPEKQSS
# FAAH = molecular target: T2, FAAH (Mus musculus, UniProt O08914); experiment: tissue distribution after co-dosing prodrug ABX-002 with or without PFI or GFI; assay type: in vivo, mice; conditions: plasma, liver and brain, co-dosing with PFI or GFI
# T2 construct: from tissue; host or cells: living mice; plasma, liver and brain sampled
# T2 sequence (O08914 1-579): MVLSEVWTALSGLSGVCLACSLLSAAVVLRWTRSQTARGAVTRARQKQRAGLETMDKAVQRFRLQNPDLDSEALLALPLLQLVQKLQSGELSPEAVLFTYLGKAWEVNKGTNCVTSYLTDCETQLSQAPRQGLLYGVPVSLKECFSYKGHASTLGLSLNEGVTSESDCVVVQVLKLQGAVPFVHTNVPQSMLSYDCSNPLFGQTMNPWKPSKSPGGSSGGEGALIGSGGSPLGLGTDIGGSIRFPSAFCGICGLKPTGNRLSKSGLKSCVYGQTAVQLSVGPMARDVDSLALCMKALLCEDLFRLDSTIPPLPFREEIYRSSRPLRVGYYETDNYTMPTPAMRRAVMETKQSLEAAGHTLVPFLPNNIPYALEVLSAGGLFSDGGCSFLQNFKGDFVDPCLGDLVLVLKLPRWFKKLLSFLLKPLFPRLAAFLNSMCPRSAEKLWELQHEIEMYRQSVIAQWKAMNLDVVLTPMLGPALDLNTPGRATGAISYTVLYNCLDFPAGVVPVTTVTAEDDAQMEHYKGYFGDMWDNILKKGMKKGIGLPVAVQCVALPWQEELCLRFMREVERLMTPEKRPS
# Description: The ability of globally-penetrant and peripherally-restricted FAAH inhibitors (GFI & PFI, respectively) to alter distribution of ABX-002 and ABX-002A was assessed.
# Table 5 depicts the inhibition of active metabolite (LL-650177 or PF-044578454) in AUC in the plasma, liver, and brain after prodrug (ABX-002) co-dosing. Tissue distribution studies in mice confirm global & peripheral inhibition of FAAH.
compound,measurement,setting,value
CNC(=O)COc1cc(Cl)c(Cc2ccc(O)c(C(C)C)c2)c(Cl)c1 [Compound 1],ke,[1],A (ke is more than or equal to 0.1)
same,prodrug levels with FAAH inhibition,FAAH,did not change or slightly increased
